In US10729157B2, “Methods for regulating weight and size of animals” (Oragenics, Inc., priority 2004, dated 2020):
Like-named read-outs stand apart in the source and are kept apart here.

Legend:
[1] = Excerpt: Adult female Sprague-Dawley rats were randomly assigned in treatment groups of 3 rats in each group to diets comprising 5, 10, 15, or 20% glycine in their feed or a non-supplemented diet. Weight measurements were obtained on the indicated day of the study. The analyst undertaking the weight measurement was blinded relative to the diet of the animal for which the observation was being recorded. The bars represent±1 standard error of the weights of the rats in each group on the indicated observation day. […] Data was analyzed using a One-Way Analysis of Variance and subjected to post-hoc analysis using Dunnett's Multiple Comparison Test.
[2] = system: abdominal fat; conditions: adult female Sprague-Dawley rats, glycine from 5% to 20% in diet vs non-supplemented, day 30
Excerpt: Adult female Sprague-Dawley rats were randomly assigned in treatment groups of 3 rats in each group to diets comprising 5, 10, 15, or 20% glycine in their feed or a non-supplemented diet. The rats in each treatment group were euthanized on day 30 of the study. Measurements of the abdominal fat content of each rat were obtained at necropsy. The analyst undertaking the measurement was blinded relative to the treatment group of the animal for which the observation was being recorded. Data was analyzed using a One-Way Analysis of Variance and subjected to post-hoc analysis using Dunnett's Multiple Comparison Test.

[3] = system: abdominal fat; conditions: ZDF rats, 20% glycine diet, at necropsy
Excerpt: (§1) Adult male Zucker diabetic fatty (ZDF) rats were randomly assigned in treatment groups of 3 rats in each group to diets comprising 20% glycine in their feed or a non-supplemented diet. ZDF rats are obese, hyperlipidemic, and insulin resistant. Weight measurements were obtained on the indicated day of the study. The analyst undertaking the weight measurement was blinded relative to the diet of the animal for which the observation was being recorded. The bars represent±1 standard error of the weights of the rats in each group on the indicated observation day. Data was analyzed using a One-Way Analysis of Variance and subjected to post-hoc analysis using Dunnett's Multiple Comparison Test. […] Measurements of the abdominal fat content of each rat were obtained at necropsy (FIG. 7).

[4] = adult male ZDF rats, 20% glycine diet vs non-supplemented, day 15 through day 36
Excerpt: as §1

Remark: listed apart in the source
[5] = Glycine added to the diet of laboratory animals (general statement)
[6] = system: BAD
Protocol: Adult male Sprague-Dawley rats were randomly assigned in treatment groups of 3 rats in each group to diets comprising 5% or 20% of glycine in their feed or a non-supplemented diet. On day 20 of the study the animals were euthanized and the adipose tissue obtained at necropsy. Total proteins were extracted from the adipose tissue.
Assay of the tissue extracts for the ability to phosphorylate BAD at serine position 136 was performed as follows: One mg of tissue extract was added to BAD agarose (Upstate, Waltham, Mass.). The reaction volume was adjusted to 1 ml using RIPA buffer (with anti-phosphatases and anti-proteases) (Tris-HCl [pH 7.4] 50 mM; NP-40 1%; Na deoxycholate 0.25%; NaCl 150 mM; EDTA 1 mM; PMSF 1 mM; Protease Arrest 100 ul; sodium orthovanadate 1 mM; sodium fluoride 1 mM) and incubated for 0.5 hr at 30° C. The agarose beads were collected by centrifugation (5 sec at 12,000× g). The supernatant was removed and the beads washed 3× with ice cold TBS. The BAD-agarose was resuspended in 40 μl of sample buffer, boiled for 5 min, and centrifuged (5 min at 12,000× g). Seven microliters of sample were electrophoresed on a 15% gel (Tris-Glycine). The protein was transferred by western blotting to a nitrocellulose membrane and blocked with 5% NFM in TTBS at 4° C. with shaking. The membrane was washed with 2% NFM in TTBS. Each lane was blotted with rabbit anti-phospho-BAD 136 antibody at (1:1000 in 2% NFM/TTBS) for 2 hrs at room temperature. The blots were washed three times for 5 min with TTBS. The blots were incubated with goat anti-Rabbit-HRP (1:5000 in 2% NFM/TTBS). The blots were washed 3× for 5 min with TTBS and 2× 5 min with TBS. Visualization of phosphorylated BAD was accomplished with a chemiluminesence substrate (Pierce Super-Signal Substrate™).

[7] = remark: listed apart in the source
Excerpt: Rats were randomly divided, caged separately, and fed water ad libitum and diet TD 80406 diet (Harlan Teklad, Madison, Wis.). The TD 80406 diet has about 1-2% glycine present in the lactalbumin component and is considered a non-supplemented diet.
Adult (180 day old) male Fisher rats were randomly assigned in treatment groups of 10 rats in each group to diets comprising 5% or 20% glycine in their feed or a non-supplemented diet. Animal and food weight measurements were obtained on the indicated day of the study. The analyst undertaking the weight measurement was blinded relative to the diet of the animal for which the observation was being recorded. The bars represent±1 standard error of the weights of the rats in each group on the indicated observation day.
(§2) The identical experiment was performed with female adult (180 day old) Fisher rats.

[8] = for size and weight after switch to diet without glycine supplementation: 4 weeks glycine diet then 10% to 0%, within one month; for growth (length) / weight gain: glycine added to diet
Excerpt: Animals treated for 4 weeks with diet supplemented with glycine were switched to diet containing no glycine supplementation (FIGS. 18 and 19, 10% to 0%). […] Animals treated for 4 weeks with diet supplemented with glycine were switched to diet containing no glycine supplementation (FIGS. 20 and 21, 10% to 0%).

[9] = rats on a high glycine diet
Excerpt: Blood samples were withdrawn from the tail vein of the rats under study and sent to Charles River Laboratories for Mutli-Analyte Profile testing. […] Am J Physiol Regul Integr Comp Physiol, 2004. […] Nahrung, 1980. 24(7):663-71; Sugiyama et al., Dietary sulfur-containing amino acids and glycine as determinant factors in plasma cholesterol regulation in growing rats. J Nutr Sci Vitaminol (Tokyo), 1985. […] Pol J Pharmacol, 2003. […] Nutrition Research, 1999. 19(12):1777-1789; Yoshida et al., Effects of addition of arginine, cystine, and glycine to the bovine milk-simulated amino acid mixture on the level of plasma and liver cholesterol in rats. J Nutr Sci Vitaminol (Tokyo), 1988. 34(6):567-76; Olson et al., Effect of amino acid diets upon serum lipids in man. Am J Clin Nutr, 1970. […] Vopr Med Khim, 1984. 30(2):78-80; Yagasaki et al., Effects of dietary methionine, cystine, and glycine on endogenous hypercholesterolemia in hepatoma-bearing rats. J Nutr Sci Vitaminol (Tokyo), 1986. […] J Biol Chem, 1990. 265(10):5910-6.

[10] = system: abdominal fat
Protocol: Five rats from each treatment group were chosen at random and euthanized on day 30 of the study. Measurements of the abdominal fat content of each rat were obtained at necropsy (FIG. 2). The analyst undertaking the measurement was blinded relative to the treatment group of the animal for which the observation was being recorded. Data was analyzed using a One-Way Analysis of Variance and subjected to post-hoc analysis using Dunnett's Multiple Comparison Test.
as §2

[11] = system: 3T3-L1 cells differentiated into adipocytes
[12] = adult female Fisher rats compared with males

Compound: NCC(=O)O [glycine]
- weight ([1]; adult female Sprague-Dawley rats, 20% glycine diet vs non-supplemented, day 15 through day 36): statistically significant decrease in weight
- weight loss ([1]; female Sprague-Dawley rats, high glycine in the diet): rapid significant weight loss
- abdominal fat content [2]: statistically significant less abdominal fat
- abdominal fat content [3]: statistically significant (p≤0.05) less abdominal fat
- weight [4]: statistically significant decrease in weight
- gross findings at necropsy (15% glycine and 85% TD80406 diet for 6 weeks, rats 24 days old at start): No gross lesions or treatment related abnormalities other than weight
- blood chemistry and complete blood counts (15% glycine diet for 6 weeks vs control diet): No differences
- histopathological examination of tissues (one animal fed high glycine diet, brain, lung, liver, adrenal gland, kidneys, urinary bladder, heart, stomach, intestines): no microscopic changes from normal histology
- weight loss ([5]; dietary glycine at high levels (20% by weight)): significant weight loss
- weight ([5]; glycine added to the diet of laboratory animals, rodent strains and dogs): dose-dependent loss in weight
- side-effects ([5]; optimal and super-optimal doses, prolonged administration): no deleterious side-effects
- ability of WAT protein extracts to phosphorylate BAD at serine position 136 ([6]; WAT of treated animals, preliminary data): did not have the ability to phosphorylate BAD
- phosphorylation state of BAD at tyrosine 136 ([6]; liver tissue extracts): no such decrease
- phosphorylation state of BAD at tyrosine 136 ([6]; muscle extracts): no such decrease
- loss of BAT tissue ([6]; preliminary experiments, glycine-fed rats): no significant loss
- phosphorylation of BAD at tyrosine 136 ([6]; white adipose tissue (WAT), adult male rats, 5% or 20% glycine diet, day 20): dose dependent decrease
- effect on weight loss and abdominal fat content [7, 12]: somewhat more pronounced in the females than in the males
- weight ([7]; adult male Fisher rats, 20% glycine diet vs 5% glycine or non-supplemented diet, day 14-30): statistically lighter
- weight after return to non-supplemented diet ([7]; adult male Fisher rats, 20% glycine group returned to non-supplemented diet on day 30, vs control after day 32): no statistical difference
- weight at end of Recovery Phase ([7]; treated adult female Fisher rats vs control): did not rebound to the level of the control animals
- size and weight after switch to diet without glycine supplementation ([8]; immature female rats): same size and weight as the control animals
- growth (length) ([8]; immature female rats): dose-dependent reduction
- weight gain ([8]; immature female rats): dose-dependent reduction
- size and weight after switch to diet without glycine supplementation ([8]; immature male rats): same size and weight as the control animals
- growth (length) ([8]; immature male rats): dose-dependent reduction
- weight gain ([8]; immature male rats): dose-dependent reduction
- adiponectin levels [9]: increase in a manner trending towards significance
- leptin levels [9]: Decrease in leptin levels, trending toward significance
- serum HDL level [9]: statistically significant (p≤0.05) reduction
- serum cholesterol level [9]: statistically significant (p≤0.05) reduction
- serum triglyceride level [9]: statistically significant (p≤0.05) reduction
- reduction in abdominal fat [10, 12]: greater than that observed for the male
- abdominal fat content ([10]; adult male Fisher rats, 20% glycine diet vs 5% glycine or non-supplemented diet, day 30): statistically significant less abdominal fat
- apoptosis by TUNEL staining ([11]; glycine in media equivalent to 2× the normal circulating levels in the blood, preliminary experiments): positive TUNEL staining
- TUNEL staining ([11]; high concentrations of glycine in the medium vs non-treated cells): increased staining for TUNEL
